Laboratory results from PMC6522510 (Nature Communications, 2019).
Where a name gives a salt, the structure may show the parent alone. Read-outs that look alike come from different tables or passages of the source. Peptide text beside a SMILES is read from it.

Experiments:
Design in all cases: species or system AML cell lines (8); Primary HTS, single concentration about 10 uM, Cell Titer Glo viability; log10 luminescence, per cent inhibition relative to cycloheximide control
Conditions in all cases: 72 h, relative to cycloheximide control, log10 luminescence, inhibitor
ML-2 = test system: ML-2
CHRF288-11 = test system: CHRF288-11
U937 = test system: U937
MOLM-13 = test system: MOLM-13
CMS = test system: CMS
MV4-11 = test system: MV4-11
M07e = test system: M07e
CMK = test system: CMK

Structure (SMILES)	ML-2 %inh (ML-2)	CHRF288-11 %inh (CHRF288-11)	U937 %inh (U937)	MOLM-13 %inh (MOLM-13)	CMS %inh (CMS)	MV4-11 %inh (MV4-11)	M07e %inh (M07e)	CMK %inh (CMK)	ML-2 %inh (ML-2; ML-2 %inh, 10 µM)	CHRF288-11 %inh (CHRF288-11; CHRF288-11 %inh, 10 µM)	U937 %inh (U937; U937 %inh, 10 µM)	MOLM-13 %inh (MOLM-13; MOLM-13 %inh, 10 µM)	CMS %inh (CMS; CMS %inh, 10 µM)	MV4-11 %inh (MV4-11; MV4-11 %inh, 10 µM)	M07e %inh (M07e; M07e %inh, 10 µM)	CMK %inh (CMK; CMK %inh, 10 µM)
CC[C@@H]([C@H](C)O)n1ncn(-c2ccc(N3CCN(c4ccc(OC[C@@H]5CO[C@@](Cn6cncn6)(c6ccc(F)cc6F)C5)cc4)CC3)cc2)c1=O [SJ000555711-1, POSACONAZOLE]	-0.9552%	4.654%	4.703%	-0.6762%	1.852%	1.133%	-0.5919%	-1.399%	–	–	–	–	–	–	–	–
CCOC(=O)C1=C[C@@H](OC(CC)CC)[C@H](NC(C)=O)[C@@H](N)C1 [SJ000555712-1, OSELTAMIVIR PHOSPHATE]	3.111%	-4.38%	-0.7037%	-1.922%	1.863%	-1.699%	-1.677%	1.207%	–	–	–	–	–	–	–	–
CC(=O)O[C@H]1C[C@@H]2CC[C@@H]3[C@H](CC[C@@]4(C)[C@H]3C[C@H](N3CC[N+](C)(C)CC3)[C@@H]4OC(C)=O)[C@@]2(C)C[C@@H]1N1CC[N+](C)(C)CC1 [SJ000555714-1, PIPECURIUM BROMIDE]	0.08837%	-2.142%	-1.326%	-1.447%	0.5876%	0.2738%	-1.4%	-9.103%	–	–	–	–	–	–	–	–
CC[N+](C)(CC)CCOC(=O)C(O)(c1ccccc1)C1CCCCC1 (stereo not drawn) [SJ000555718-1, OXYPHENONIUM BROMIDE]	3.325%	89.25%	4.807%	7.019%	-0.491%	4.785%	-3.166%	0.4248%	–	–	–	–	–	–	–	–
CC(C)(C)C(=O)Oc1ccc(S(=O)(=O)Nc2ccccc2C(=O)NCC(=O)O)cc1 [SJ000556638-2, SIVELESTAT SODIUM SALT]	–	–	–	–	–	–	–	–	1.02%	2.891%	-0.4301%	-1.5%	2.093%	2.862%	0.385%	-3.181%
CC(C)(C)C(=O)Oc1ccc(S(=O)(=O)Nc2ccccc2C(=O)NCC(=O)O)cc1 [SJ000556638-3, SIVELESTAT SODIUM SALT]	–	–	–	–	–	–	–	–	0.7785%	-1.426%	-0.2709%	-1.044%	-1.314%	-1.916%	0.5204%	-2.417%
Cc1ccc(Nc2nccc(N(C)c3ccc4c(C)n(C)nc4c3)n2)cc1S(N)(=O)=O [SJ000556680-2, PAZOPANIB | 786034 | GSK-786034 | GW-786034 | GW-786034B | PAZOPANIB HCL (GW786034 HCL)]	7.239%	59.62%	10.79%	85.38%	28.45%	69.1%	33.41%	114.3%	–	–	–	–	–	–	–	–
C/C(O)=C(\C#N)C(=O)Nc1ccc(C(F)(F)F)cc1 [SJ000556684-2, TERIFLUNOMIDE]	6.049%	13.26%	-0.6256%	8.514%	4.451%	2.233%	0.1279%	2.602%	–	–	–	–	–	–	–	–
Cc1[nH]c(/C=C2\C(=O)Nc3ccccc32)c(C)c1CCC(=O)O [SJ000556685-2, ORANTINIB | SU-6668 | TSU-68 | TSU-68 (SU6668, ORANTINIB)]	2.987%	14.71%	4.629%	33.6%	12.46%	14.82%	0.796%	1.601%	–	–	–	–	–	–	–	–
CN(C(=O)c1cc2ccccc2cc1C(=O)C(c1cccc2ccccc12)P(=O)(O)O)C1CCN(C(=O)c2ccccc2)CC1 (stereo not drawn) [SJ000556691-1, CATHEPSIN G INHIBITOR I]	0.3338%	9.27%	-1.516%	0.5105%	2.107%	1.483%	0.0007022%	10.35%	–	–	–	–	–	–	–	–
CO[C@@H]1[C@H](OC(=O)/C=C/C=C/C=C/C=C/C(=O)O)CC[C@]2(CO2)[C@H]1[C@@]1(C)O[C@@H]1CC=C(C)C [SJ000556696-1, FUMAGILLIN]	–	–	–	–	–	–	–	–	2.951%	12.42%	19.23%	6.124%	10.64%	13.12%	2.083%	-0.5821%
CO[C@@H]1[C@H](OC(=O)/C=C/C=C/C=C/C=C/C(=O)O)CC[C@]2(CO2)[C@H]1[C@@]1(C)O[C@@H]1CC=C(C)C [SJ000556696-2, FUMAGILLIN]	–	–	–	–	–	–	–	–	3.251%	24.31%	20.26%	10.06%	7.757%	9.134%	1.679%	-0.114%
CC(C)C[C@H](N)C(=O)N[C@H](C(=O)N[C@H](C(=O)N[C@@H](Cc1ccc(O)cc1)C(=O)N1CCC[C@H]1C(=O)N[C@@H](Cc1c[nH]c2ccccc12)C(=O)N[C@H](C(=O)O)[C@@H](C)O)C(C)C)C(C)C [SJ000556698-1, SPINORPHIN] (H-LVVYPWT-OH)	-1.792%	-1.007%	0.1872%	-0.8143%	4.762%	-0.248%	-3.453%	0.1545%	–	–	–	–	–	–	–	–
COc1ccc(S(=O)(=O)N2CCN(C(=O)c3ccc(-c4ccccc4)cc3)CC2C(=O)NO)cc1 (stereo not drawn) [SJ000556700-1, N-HYDROXY-1-(4-METHOXYPHENYL)SULFONYL-4-(4-BIPHENYLCARBONYL)PIPERAZINE-2-CARBOXAMIDE]	62.36%	142.9%	72.9%	33.07%	90.96%	72.89%	105.4%	129.1%	–	–	–	–	–	–	–	–
C[C@@H]1CN(c2c(F)c(N)c3c(=O)c(C(=O)O)cn(C4CC4)c3c2F)C[C@H](C)N1 [SJ000556731-1, SPARFLOXACIN]	–	–	–	–	–	–	–	–	2.718%	-1.018%	1.66%	-3.504%	-1.257%	7.588%	-0.05975%	-4.344%
C[C@@H]1CN(c2c(F)c(N)c3c(=O)c(C(=O)O)cn(C4CC4)c3c2F)C[C@H](C)N1 [SJ000556731-2, SPARFLOXACIN]	–	–	–	–	–	–	–	–	2.462%	0.9037%	3.77%	6.829%	-0.1151%	1.115%	-2.464%	6.161%
C=CC[N+]1([C@H]2C[C@H]3[C@@H]4CC[C@H]5C[C@H](O)[C@@H](N6CCOCC6)C[C@]5(C)[C@H]4CC[C@]3(C)[C@H]2OC(C)=O)CCCC1 [SJ000556732-1, ROCURONIUM BROMIDE]	-0.2233%	-4.633%	-2.855%	-4.64%	-2.237%	0.4653%	-1.372%	-9.307%	–	–	–	–	–	–	–	–
O=C(O[C@H]1C[C@H]2CC[C@@H](C1)[N+]21CCCC1)C(O)(c1ccccc1)c1ccccc1 [SJ000556733-1, TROSPIUM CHLORIDE]	–	–	–	–	–	–	–	–	2.085%	1.082%	-2.05%	-2.987%	1.711%	-0.2163%	0.3246%	-8.303%
